Measurements: patent US8895313B2, “Ligands for aggregated tau molecules” (Wista Laboratories Ltd., priority 2008, dated 2014)

The compounds below were run against PHF (paired helical filaments) isolated from the brain of an Alzheimer's disease patient (Homo sapiens, UniProt P10636) (assay: Competitive binding assay: displacement of primulin fluorescence from PHFs). Conditions: concentration that reduces the signal of 1 μM primulin to 50% of control; relative affinity.
Method: The DSB compounds were tested for their ability to bind to PHF in a competition-style assay.
If a test compound that also binds to PHFs with the same or greater affinity is added, it will displace the reference ligand and reduce the fluorescence signal. In the present assay, the reference compound is primulin, which was added at 1 μM. Test compounds were added at concentrations from 0.05 to 1 μM. The P50 for a test compound is defined as the concentration of compound that reduces the primulin signal to 50% of the control value. This value is, therefore, not an absolute affinity, but a relative affinity compared to the affinity of primulin.
PHFs were isolated from the brain of an Alzheimer's disease patient essentially as described by Wischik et al. (Neurobiology of Aging, Vol. 16, pp. 409-431, 1995). The IFII fraction was isolated by centrifugation on a sucrose gradient as described in the PhD thesis of C. M. Wischik, and was further extracted into an ‘abc sup’ as described by C. M. Wischik (Thesis “The structure and biochemistry of paired helical filaments in Alzheimer's disease” Part I and II; Cambridge University, 1989).
The assay for ligand activity was performed in 96 well plates (Nunc Cat. No. 236108). The test compound at the required concentration was mixed with PHFs, then primulin was added to give a final concentration of 1 μM and a total volume of 100 μl. The concentration of PHFs added was determined for each preparation to give an adequate fluorescence signal, and was typically in the range 1-2 μl/100 μl. The test compounds were typically dissolved in DMSO to give a final concentration of 10% DMSO in the assay. The control fluorescence, in the absence of PHFs, was also measured in the presence of 10% DMSO.
The fluorescence was measured in a Varian Carey Eclipse Fluorescence Spectrophotometer, with the […] wavelength at 480 nm. Excitation spectra were recorded and corrected by subtraction of the signal measured in the absence of PHFs, using the Varian software. The fluorescence signal at the peak […] wavelength of 420 nm was measured from the corrected spectra. The fluorescence values were plotted as a function of concentration of test compound, and the value for P50 measured from the graph.

PHF (paired helical filaments) isolated from the brain of an Alzheimer's disease patient, sequence (P10636 623-708 limits assumed): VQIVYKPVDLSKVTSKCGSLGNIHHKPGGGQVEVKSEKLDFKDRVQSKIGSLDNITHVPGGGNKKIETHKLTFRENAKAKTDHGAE

SMILES	P50
O=C(Nc1ccc(-c2nc3ccc(O)cc3s2)cc1)c1ccc(OCCC(F)(F)F)cc1 [ABFHA-04]	no effect
COc1ccc2nc(-c3ccc(NC(=O)c4ccccc4C(F)(F)F)cc3)sc2c1 [ABFMA-01]	no effect
COc1ccc2nc(-c3ccc(NC(=O)c4cccc(C(F)(F)F)c4)cc3)sc2c1 [ABFMA-02]	no effect
COc1ccc2nc(-c3ccc(NC(=O)c4ccc(C(F)(F)F)cc4)cc3)sc2c1 [ABFMA-03]	no effect
COc1ccc(C(=O)Nc2ccc(-c3nc4ccc(OC)cc4s3)cc2OC)c(C(F)(F)F)c1 [ABFMA-10]	no effect
COc1ccc2nc(-c3ccc(NC(=O)c4ccc(OCCCC(F)(F)F)cc4)cc3)sc2c1 [ABFMA-13]	no effect
COc1ccc2nc(-c3ccc(NC(=O)c4ccc(N)cc4C(F)(F)F)cc3)sc2c1 [ABFMA-16]	no effect
COc1ccc2nc(-c3ccc(NC(=O)c4ccc(N(C)C)cc4C(F)(F)F)cc3)sc2c1 [ABFMA-18]	no effect
COc1ccc2nc(-c3ccc(NC(=O)c4ccc(OCC(F)(F)F)cc4)cc3)sc2c1 [ABFMA-19]	no effect
COc1ccc2nc(-c3ccc(NC(=O)c4ccc(F)cc4)cc3)sc2c1 [ABMFMA-01]	no effect
COc1ccc2nc(-c3ccc(NC(=O)c4ccc(OCCF)cc4)cc3)sc2c1 [ABMFMA-06]	no effect

The remaining lines, values ahead:

P50	SMILES
no effect	Cc1ccc2nc(-c3ccc(NC(=O)c4ccccc4N)cc3)sc2c1 [ABAA-04]
no effect	Cc1ccc2nc(-c3ccc(NC(=O)c4cccc(N)c4)cc3)sc2c1 [ABAA-05]
no effect	Cc1ccc2nc(-c3ccc(NC(=O)c4ccccc4N(C)C)cc3)sc2c1 [ABAA-07]
no effect	Cc1ccc2nc(-c3ccc(NC(=O)c4cccc(N(C)C)c4)cc3)sc2c1 [ABAA-08]
no effect	CNc1cccc(C(=O)Nc2ccc(-c3nc4ccc(C)cc4s3)cc2)c1 [ABAA-12]
no effect	COc1cc(NC(=O)c2ccccc2N(C)C)ccc1-c1nc2ccc(O)cc2s1 [ABHA-04]
no effect	CN(C)c1ccc(C(=O)Nc2ccc(-c3cn4cccnc4n3)cc2)cc1 [AIPM-01]
no effect	Cc1ccc2nc(-c3ccc(NC(=O)c4ccncc4)cc3)cn2c1 [AIPN-03]
no effect	Cc1ccc2nc(-c3ccc(NC(=O)c4cccnc4)cc3)cn2c1 [AIPN-04]
no effect	Cc1ccc2nc(-c3ccc(NC(=O)c4ccc(F)nc4)cc3)cn2c1 [AIPN-06]
no effect	Cc1ccc2nc(-c3ccc(NC(=O)c4ccc(F)c(C(F)(F)F)c4)cc3)cn2c1 [AIPN-17]

Same assay, conditions: concentration that reduces the signal of 1 μM primulin to 50% of control; relative affinity; read-out: P50

SMILES	IC50
CN(C)CCOc1ccc2nc(-c3ccc(NC(=O)c4ccc([N+](=O)[O-])c(C(F)(F)F)c4)cc3)sc2c1 [ABDMAA-01]	980 nM
CN(C)CCOc1ccc2nc(-c3ccc(NC(=O)c4ccc([N+](=O)[O-])c(C(F)(F)F)c4)cc3)sc2c1 [ABDMAA-02]	> 1000 nM
O=C(Nc1ccc(-c2nc3ccc(O)cc3s2)cc1)c1ccc([N+](=O)[O-])c(C(F)(F)F)c1 [ABFHA-01]	190 nM
Nc1ccc(C(=O)Nc2ccc(-c3nc4ccc(O)cc4s3)cc2)cc1C(F)(F)F [ABFHA-02]	340 nM
O=C(Nc1ccc(-c2nc3ccc(O)cc3s2)cc1)c1ccc(OCC(F)(F)F)cc1 [ABFHA-03]	100 nM
O=C(Nc1ccc(-c2nc3ccc(O)cc3s2)cc1)c1ccc(OCCCC(F)(F)F)cc1 [ABFHA-05]	400 nM
O=C(Nc1ccc(-c2nc3ccc(O)cc3s2)c(O)c1)c1cc(OC(F)(F)F)ccc1O [ABFHA-06]	390 nM
O=C(Nc1ccc(-c2nc3ccc(O)cc3s2)c(O)c1)c1ccc(F)cc1 [ABFHA-07]	100 nM
O=C(Nc1ccc(-c2nc3ccc(O)cc3s2)cc1)c1ccc(O)cc1C(F)(F)F [ABFHA-08]	> 1000 nM
O=C(Nc1ccc(-c2nc3ccc(O)cc3s2)cc1)c1cc(OC(F)(F)F)ccc1O [ABFHA-09]	> 1000 nM
O=C(Nc1ccc(-c2nc3ccc(O)cc3s2)c(C(F)(F)F)c1)c1ccc(O)cc1 [ABFHA-10]	> 1000 nM
O=C(Nc1ccc(-c2nc3ccc(O)cc3s2)cc1)c1ccc(F)c([N+](=O)[O-])c1 [ABFHA-11]	310 nM
COc1ccc2nc(-c3ccc(NC(=O)c4ccc([N+](=O)[O-])c(C(F)(F)F)c4)cc3)sc2c1 [ABFMA-12]	170 nM
COc1ccc2nc(-c3ccc(NC(=O)c4ccc(N)c(C(F)(F)F)c4)cc3)sc2c1 [ABFMA-15]	430 nM
COc1ccc2nc(-c3ccc(NC(=O)c4ccc(F)nc4)cc3)sc2c1 [ABMFMA-02]	890 nM
COc1ccc2nc(-c3ccc(NC(=O)c4ccc(Cl)nc4)cc3)sc2c1 [ABMFMA-03]	340 nM
COc1ccc2nc(-c3ccc(NC(=O)c4ccc(F)c([N+](=O)[O-])c4)cc3)sc2c1 [ABMFMA-05]	200 nM
COc1ccc2nc(-c3ccc(NC(=O)c4ccc(Br)c([N+](=O)[O-])c4)cc3)sc2c1 [ABMFMA-08]	> 1000 nM
COc1ccc2nc(-c3ccc(NC(=O)c4ccc(I)c([N+](=O)[O-])c4)cc3)sc2c1 [ABMFMA-09]	210 nM

Second part, the compound after the results:

IC50	SMILES
520 nM	Cc1ccc2nc(-c3ccc(NC(=O)c4ccc(N)cc4)cc3)sc2c1 [ABAA-06]
~1200 nM	Cc1ccc2nc(-c3ccc(NC(=O)c4ccccc4)cc3)sc2c1 [ABAA-10]
~1200 nM	Cc1ccc2nc(-c3ccc(NC(=O)c4cccc(O)c4)cc3)sc2c1 [ABAA-11]
900 nM	Nc1ccccc1C(=O)Nc1ccc(-c2nc3ccc(O)cc3s2)cc1 [ABHA-01]
560 nM	Nc1cccc(C(=O)Nc2ccc(-c3nc4ccc(O)cc4s3)cc2)c1 [ABHA-02]
450 nM	Nc1ccc(C(=O)Nc2ccc(-c3nc4ccc(O)cc4s3)cc2)cc1 [ABHA-03]
870 nM	COc1ccc2nc(-c3ccc(NC(=O)c4ccccc4N)cc3)sc2c1 [ABMA-04]
850 nM	COc1ccc2nc(-c3ccc(NC(=O)c4cccc(N)c4)cc3)sc2c1 [ABMA-05]
370 nM	COc1ccc2nc(-c3ccc(NC(=O)c4ccc(N)cc4)cc3)sc2c1 [ABMA-06]
1350 nM	COc1ccc2nc(-c3ccc(NC(=O)c4ccccc4N(C)C)cc3)sc2c1 [ABMA-07]
~1200 nM	COc1ccc2nc(-c3ccc(NC(=O)c4cccc(N(C)C)c4)cc3)sc2c1 [ABMA-08]
170 nM	COc1ccc2nc(-c3ccc(NC(=O)c4ccc(N(C)C)cc4)cc3)sc2c1 [ABMA-09]
310 nM	COc1ccc2nc(-c3ccc(NC(=O)c4ccc(OC(C)=O)cc4)cc3)sc2c1 [ABMA-10]
430 nM	COc1ccc2nc(-c3ccc(NC(=O)c4ccc(O)cc4)cc3)sc2c1 [ABMA-11]
310 nM	COc1ccc2nc(-c3ccc(NC(=O)c4ccc(O)c([N+](=O)[O-])c4)cc3)sc2c1 [ABMA-13]
> 1000 nM	CN(C)c1ccc(C(=O)Nc2ccc(-c3cn4ccccc4n3)cc2)cc1 [AIPN-01]

IC50	SMILES
310 nM	Cc1ccc2nc(-c3ccc(NC(=O)c4ccc(N(C)C)cc4)cc3)cn2c1 [AIPN-02]
510 nM	Cc1ccc2nc(-c3ccc(NC(=O)c4ccccn4)cc3)cn2c1 [AIPN-05]
> 1000 nM	Cc1ccc2nc(-c3ccc(NC(=O)c4cccc(F)n4)cc3)cn2c1 [AIPN-07]
100 nM	Cc1ccc2nc(-c3ccc(NC(=O)c4ccc([N+](=O)[O-])cc4)cc3)cn2c1 [AIPN-08]
340 nM	Cc1ccc2nc(-c3ccc(NC(=O)c4ccc([N+](=O)[O-])c(C(F)(F)F)c4)cc3)cn2c1 [AIPN-09]
180 nM	Cc1ccc2nc(-c3ccc(NC(=O)c4ccc(NO)c(C(F)(F)F)c4)cc3)cn2c1 [AIPN-10]
660 nM	Cc1ccc2nc(-c3ccc(NC(=O)c4ccc(N)cc4)cc3)cn2c1 [AIPN-11]
330 nM	CNc1ccc(C(=O)Nc2ccc(-c3cn4cc(C)ccc4n3)cc2)cc1 [AIPN-12]
630 nM	COc1ccc(C(=O)Nc2ccc(-c3cn4cc(C)ccc4n3)cc2)cc1 [AIPN-13]
500 nM	Cc1ccc2nc(-c3ccc(NC(=O)c4ccc(O)cc4)cc3)cn2c1 [AIPN-14]
> 1000 nM	Cc1ccc2nc(-c3ccc(NC(=O)c4cc(F)c(N(C)C)c(F)c4)cc3)cn2c1 [AIPN-16]
> 1000 nM	Cc1ccc2nc(-c3ccc(NC(=O)c4ccc(Cl)nc4)cc3)cn2c1 [AIPN-18]
270 nM	CNc1ccc(C(=O)Nc2ccc(-c3cn4cc(C)ccc4n3)cc2)cc1F [AIPN-20]
460 nM	CNc1c(F)cc(C(=O)Nc2ccc(-c3cn4cc(C)ccc4n3)cc2)cc1F [AIPN-21]
760 nM	Cc1ccc2nc(-c3ccc(NC(=O)c4ccc(N(C)C)c(F)c4)cc3)cn2c1 [AIPN-22]
